Literature values in patent US20050025723A1, “Sunburn treatment and sunburn prevention method” (priority 2000, published 2005).
“Also recorded” adds a separate entry of the source.

Assays:
fever = details: compared with parent peptide α-MSH or α-MSH(11-13); literature statements
inflammation = details: in vitro and in vivo; compared with parent molecule or the L-form tripeptide; literature statements
learning and memory = details: in vivo
[1] = tested on: melanocytes and melanoma cells

Substance	antipyretic potency / activity (reducing fever) (fever)	anti-inflammatory activity / potency (inflammation)	learning and memory behavioral effects (learning and memory)	biological activity on melanocytes and melanoma cells [1]
8-13 sequence: α-MSH 8-13 sequence (RWGKPV; Designed polypeptide with anti-inflammatory, anti-bacterial, anti-fungal and antipyretic properties.)	greater than that of the 11-13 sequence			
9-13 sequence: α-MSH 9-13 sequence (WGKPV; C-terminal sequences of alpha-MSH)	almost devoid of activity			
10-13 sequence: α-MSH 10-13 sequence formed by addition of glycine to α-MSH(11-13) (GKPV; Designed polypeptide with anti-inflammatory, anti-bacterial, anti-fungal and antipyretic properties.)	slightly decreased potency			
Ac-[D-K11]-α-MSH 11-13-NH2		same general potency as the L-form of the tripeptide		
MEHFRWG [α-MSH sequence (4-10)]	little	little	has learning and memory behavioral effects	
[Nle^4,D-Phe^7]α-MSH	approximately ten times more potent than the parent peptide			marked biological activity
lysine-proline-valine [KPV]	parallel those of the parent molecule	parallel those of the parent molecule; also recorded: effective over a very broad range of concentrations, including picomolar concentrations		
